# Marks after values point to notes of the source that are not given here.
# How the values were obtained:
# [1] = system: transgenic mice over-expressing one mutated form of the NOTCH 3 gene; assay: Dementia of vascular origin: transgenic mice over-expressing mutated NOTCH 3 gene (CADASIL model, Example 6); format: in vivo, mouse; parameters: SODt (oxidative stress marker) / Cabalase (oxidative stress marker) / HPT (oxidative stress marker) / MDA (oxidative stress marker): unit not given here; conditions: 100 μg/kg i.p. twice a week, 16 weeks
# Description: This experiment was conducted to evaluate the efficacy of pharmaceutical compositions indistinctly containing one of the peptides GHRP-6, GHRP-2, hexarelin or ghrelin on the central neurofunctional involution process in transgenic mice over-expressing one mutated form of the NOTCH 3 gene in blood vessel smooth muscle cells. These animals develop in terms of months an arteriopathy similar to that of the CASADIL disease, referred to the descriptive memory, and is occurring as one of the main causes of vascular dementia. In these animals, vascular lesions also include retinal-cerebral, cerebral and cochlear vasculopathies. The beta-amiloid material present in the brain and blood vessels, the deposit of osmophilic granular material in brain and meningeal artery walls and their reduced lumen are histopathologically relevant. White-pale zones, microinfarction and hemorrhagic foci zones appear in the brain and its main nervous trunks.
# Eighteen- to twenty-months-old male mice were employed when evidenced the symptoms of the disease. The animals were randomly assigned to the following experimental treatment groups: • A—Placebo group receiving the physiological saline solution. • B—Group receiving GHRP-6 at a 100 μg/kg dosage. • C—Group receiving GHRP-2 at a 100 μg/kg dosage. • D—Group receiving Ghrelin at a 100 μg/kg dosage. • E—Group receiving Hexarelin at a 100 μg/kg dosage.
# Treatments were applied twice a week during 16 weeks by intraperitoneal route. When treatments concluded, autopsy studies were conducted irrespective of the clinical improvement evidenced in a great number of animals treated. Brain tissue samples including meningeal tissues were collected for biochemical and histopathological determinations. The animals received anesthesia overdosed and subjected to intra-cardiac perfusion with cold physiological saline solution to wash off the blood present in the encephala. The encephala were extracted and one encephalon was frozen in dry-ice and the other was fixed in 4% para-formaldehyde neutral. Samples were cryo-sliced at 10 μm and slices were stained with hematoxylin/eosin, Congo Red, or incubated with an antibody specific for the beta-amiloid protein. Morphometric procedures were carried out by microscopic imaging capture by a camera connected to the microscope, and the images were analyzed with the DIGIPAT software.
# Number of fibrillar deposits of beta-amiloid in blood vessels.
# Number of sub-cortical infarctions.
# Number of sub-cortical hemorrhages.
# Brain concentration of myo-inositol as indicator of aging and brain metabolism deterioration (μmol/g of tissue).
# Brain oxidative stress markers.
# [2] = system: renal fibrosis in rats (Doxorubicin); assay: Reverting renal fibrosis induced by Doxorubicin in rats (Example 3); format: in vivo, rat; conditions: for GOT serum level (integrity of the hepatic parenchyma) / GPT serum level (integrity of the hepatic parenchyma) / OH—P Content (hydroxiproline) in kidneys / Grado 0 (null) fibrosis in kidneys, numbers of animals per group / Grado 1 (moderate) fibrosis in kidneys, numbers of animals per group / Grado 2 (intense) fibrosis in kidneys, numbers of animals per group / Grado 3 (very intense) fibrosis in kidneys, numbers of animals per group: 4 weeks; for GOT serum level (integrity of the hepatic parenchyma) / GPT serum level (integrity of the hepatic parenchyma) / OH—P Content (hydroxiproline) in kidneys: end of treatment; for OH—P Content (hydroxiproline) in kidneys: 20 fragments per group; for Grado 0 (null) fibrosis in kidneys, numbers of animals per group / Grado 1 (moderate) fibrosis in kidneys, numbers of animals per group / Grado 2 (intense) fibrosis in kidneys, numbers of animals per group / Grado 3 (very intense) fibrosis in kidneys, numbers of animals per group: N = 20; for Catalase (oxidative stress marker) / HPT (oxidative stress marker) / MDA (oxidative stress marker) / SODt (oxidative stress marker): renal tissue samples, end of the fourth week of treatment
# Description: This experiment was conducted to evaluate the effect of the pharmaceutical composition containing GHRP-6 in reverting renal fibrosis in rats. In this case, the process was induced by sustained administration of the anti-neoplasic agent Doxorubicin (DX) at a 2.5 mg/kg dosage twice a week during 8 weeks. […] This point forward, DX administration was interrupted and the treatment with the pharmaceutical composition containing the GHRP-6 was started. The treatment was applied once daily at 100 and 400 μg/kg in a volume of 1 ml by the intraperitoneal route, during 4 weeks. The animals remaining were randomly distributed into three experimental groups of 20 rats each: (1) Control placebo group, receiving physiological saline solution, (2) Group receiving the GHRP-6 at a 100 μg/kg dosage, and (3) Group receiving the GHRP-6 at a 400 μg/kg dosage. When treatments concluded, the animals were sacrificed by anesthesia overdose and livers, kidneys, lungs and blood sera were collected. Tissue fragments were fixed in formalin neutral and processed by hematoxylin/eosin staining, or by Masson's trichromic staining, to evaluate the general damage and the severity of fibrotic indurations. Other fragments were stored at −70° C. until processing to determine the content of hydroxiproline by acid hydrolysis in 1N HCl, and also the levels of creatinine and oxidative stress markers. Biochemical determinations were carried out by calculating the total protein content by the Bradford's method.
# [3] = Dosage I: 100 μg/kg i.p. once daily
# [4] = Dosage II: 400 μg/kg i.p. once daily
# [5] = Dosis I: 100 μg/kg i.p. once daily
# [6] = Dosis II: 400 μg/kg i.p. once daily
substance,measurement,setting,value
GHRP-6,Cabalase (oxidative stress marker),[1]; brain,51.5 ± 16.01
same,Cerebral Myo-inositol,[1]; brain,12.36 ± 5.64 μmol/g of tissue
same,HPT (oxidative stress marker),[1]; brain,101.7 ± 22.09
same,MDA (oxidative stress marker),[1]; brain,0.23 ± 0.05
same,SODt (oxidative stress marker),[1]; brain,12327.31 ± 55.1
same,No. of blood vessels positive to Congo Red,[1]; cerebral tissues,16.31 ± 5.33
same,No. of blood vessels positive to Nissl,[1]; cerebral tissues,14.22 ± 8.15
same,No. of hemorrhagic foci.,[1]; cerebral tissues,19.05 ± 5.14
same,No. of subcortical infarctions.,[1]; cerebral tissues,26.79 ± 4.19
same,GOT serum level (integrity of the hepatic parenchyma),[2]; [3],64.82 ± 23.71 IU/l
same,GPT serum level (integrity of the hepatic parenchyma),[2]; [3],81.0 ± 10.25 IU/l
same,OH—P Content (hydroxiproline) in kidneys,[2]; [3],46.15 ± 2.73 μg/g of total proteins
same,GOT serum level (integrity of the hepatic parenchyma),[2]; [4],26.22 ± 4.1 IU/l
same,GPT serum level (integrity of the hepatic parenchyma),[2]; [4],28.25 ± 5.66 IU/l
same,OH—P Content (hydroxiproline) in kidneys,[2]; [4],8.66 ± 1.02 μg/g of total proteins
same,"Grado 0 (null) fibrosis in kidneys, numbers of animals per group",[2]; [5],6
same,"Grado 1 (moderate) fibrosis in kidneys, numbers of animals per group",[2]; [5],9
same,"Grado 2 (intense) fibrosis in kidneys, numbers of animals per group",[2]; [5],5
same,"Grado 3 (very intense) fibrosis in kidneys, numbers of animals per group",[2]; [5],0
same,"Grado 0 (null) fibrosis in kidneys, numbers of animals per group",[2]; [6],5
same,"Grado 1 (moderate) fibrosis in kidneys, numbers of animals per group",[2]; [6],15*
same,"Grado 2 (intense) fibrosis in kidneys, numbers of animals per group",[2]; [6],0
same,"Grado 3 (very intense) fibrosis in kidneys, numbers of animals per group",[2]; [6],0
same,Percent of animals with renal fibrosis compromise per group at the end of the treatment,"[2]; FIGURE, 100 and 400 μg/kg vs. placebo, highest difference at 400 μg/kg",dosage-dependent effect
same,Catalase (oxidative stress marker),[2]; Dosage I: 100 μg/kg,126.02 ± 12.23
same,HPT (oxidative stress marker),[2]; Dosage I: 100 μg/kg,73.2 ± 6.92
same,MDA (oxidative stress marker),[2]; Dosage I: 100 μg/kg,0.56 ± 2.23
same,SODt (oxidative stress marker),[2]; Dosage I: 100 μg/kg,665.08 ± 28.42
same,Catalase (oxidative stress marker),[2]; Dosage II: 400 μg/kg,45.38 ± 8.27
same,HPT (oxidative stress marker),[2]; Dosage II: 400 μg/kg,16.14 ± 3.67
same,MDA (oxidative stress marker),[2]; Dosage II: 400 μg/kg,0.087 ± 0.02
same,SODt (oxidative stress marker),[2]; Dosage II: 400 μg/kg,1287.64 ± 112.63

# From patent US8722626B2, “Method for controlling fibrosis and other pathological deposits in tissues comprising administering a GHRP-6 composition” (Centro de Ingenieria Genetica y Biotecnologia, priority 2006, dated 2014)
